Source: patent publication US20070167412A1, “HALOCOMBSTATINS AND METHODS OF SYNTHESIS THEREOF” (ARIZONA BOARD OF REGENTS, priority 2003, published 2007)

What was measured:
[1] = tested on: Breast MCF-7; test: human cancer cell growth inhibition, sulforhodamine B assay; assay type: cell-based; conditions: 48 hours
Procedure, shortened: (§1)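 Cells are incubated 48 hours, fixed with trichloracetic acid, then stained with sulforhodamine B. Absorbance is read automatically in microplates.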

[2] = tested on: CNS SF268; test: as above; assay type: cell-based; conditions: 48 hours
Procedure, shortened: as §1

[3] = tested on: Colon KM20L2; test: as above; assay type: cell-based; conditions: 48 hours
Procedure, shortened: as §1

[4] = tested on: Lung-NSC NCI-H460; test: as above; assay type: cell-based; conditions: 48 hours
Procedure, shortened: as §1

[5] = tested on: Pancreas BXPC-3; test: as above; assay type: cell-based; conditions: 48 hours
Procedure, shortened: as §1

[6] = tested on: Prostate DU-145; test: as above; assay type: cell-based; conditions: 48 hours
Procedure, shortened: as §1

[7] = tested on: purified tubulin; conditions: earlier study, Lin et al. 1988; cited from earlier work
[8] = tested on: tubulin; conditions: earlier study, Lin et al. 1988; cited from earlier work
[9] = tested on: Cryptococcus neoformans; conditions: previously shown, Pettit et al. 2000; cited from earlier work
[10] = earlier study, Lin et al. 1988; cited from earlier work
[11] = solubility in D2O; assay type: physicochemical; conditions: 1 mL D2O at 25° C.

Row | Molecule | Human cancer cell line inhibition (GI50) Breast adn MCF-7 ([1]; Table I) | Human cancer cell line inhibition (GI50) CNS SF268 ([2]; Table I) | Human cancer cell line inhibition (GI50) Colon KM20L2 ([3]; Table I) | Human cancer cell line inhibition (GI50) Lung-NSC NCI-H460 ([4]; Table I) | Human cancer cell line inhibition (GI50) Pancreas-a BXPC-3 ([5]; Table I) | Human cancer cell line inhibition (GI50) Prostate DU-145 ([6]; Table I) | activity relative to CA4 (1a) as an inhibitor of tubulin assembly [7] | activity relative to CA4 (1a) as an inhibitor of colchicine binding to tubulin [8] | inhibition of growth of the pathogenic fungus Cryptococcus neoformans [9] | activity relative to CA4 (1a) as an inhibitor of cell growth [10] | human cancer cell line growth inhibition (GI50) Breast MCF-7 ([1]; Table Ia) | human cancer cell line growth inhibition (GI50) CNS SF268 ([2]; Table Ia) | human cancer cell line growth inhibition (GI50) Colon KM20L2 ([3]; Table Ia) | human cancer cell line growth inhibition (GI50) Lung-NSC NCI-H460 ([4]; Table Ia) | human cancer cell line growth inhibition (GI50) Pancreas BXPC-3 ([5]; Table Ia) | human cancer cell line growth inhibition (GI50) Prostate DU-145 ([6]; Table Ia) | Solubility [11]
1 | combretastatin A-3 [Compound 3a, reference compound] | 0.49 µg/mL | 0.0083 µg/mL | 1.2 µg/mL | 0.19 µg/mL | 2.3 µg/mL | 0.0043 µg/mL | about half as active | about one fifth as active | inhibited growth | about one seventh as active |  |  |  |  |  |  | 
2 | C1CCNCC1.C1CCNCC1.COc1ccc(/C=C\c2cc(I)c(OC)c(OC)c2)cc1OP(=O)(O)O [O] |  |  |  |  |  |  |  |  |  |  | 0.0065 µg/mL | 0.0044 µg/mL | 0.51 µg/mL | 0.0036 µg/mL | 0.32 µg/mL | 0.0029 µg/mL | ≧4 mg/mL
